# Columns and labels:
# [1] = target: T1, HCV NS3/4A protease complex, BMS strain (UniProt P27958, species not given/STRAIN_BMS); assay: FRET peptide assay to monitor HCV NS3/4A proteolytic activity (BMS strain); format: biochemical, Hepatitis C virus (genotype 1a); details: NS3/4A BMS strain; read-out: IC50 Range
# T1 construct: said of H77 and J4L6S; fused on or other part: A three-lysine solubilising tail at the C-terminus of NS4A and a His tag (pET21b, Ni-NTA purification)
# Text: HCV NS3 protease complexes, derived from the BMS strain, H77 strain or J4L6S strain, were generated, as described below. These purified recombinant proteins were generated for use in a homogeneous assay (see below) to provide an indication of how effective compounds of the present disclosure would be in inhibiting HCV NS3 proteolytic activity.
# Serum from an HCV-infected patient was obtained from Dr. T. Wright, San Francisco Hospital. An engineered full-length cDNA (compliment deoxyribonucleic acid) template of the HCV genome (BMS strain) was constructed from DNA fragments obtained by reverse transcription-PCR (RT-PCR) of serum RNA (ribonucleic acid) and using primers selected on the basis of homology between other genotype 1a strains. From the determination of the entire genome sequence, a genotype 1a was assigned to the HCV isolate according to the classification of Simmonds et al. (See P Simmonds, K A Rose, S Graham, S W Chan, F McOmish, B C Dow, E A Follett, P L Yap and H Marsden, J. Clin. Microbiol., 31(6), 1493-1503 (1993)). […] The infectious clones, H77 (1a genotype) and J4L6S (1b genotype) were obtained from R. Purcell (NIH) and the sequences are published in Genbank (AAB67036, see Yanagi, M., Purcell, R. H., Emerson, S. U. and Bukh, J. Proc. Natl. Acad. Sci. U.S.A. 94(16), 8738-8743 (1997); AF054247, see Yanagi, M., St Claire, M., Shapiro, M., Emerson, S. U., Purcell, R. H. and Bukh, J, Virology 244 (1), 161-172. (1998)).
# The H77 and J4L6S strains were used for production of recombinant NS3/4A protease complexes. DNA encoding the recombinant HCV NS3/4A protease complex (amino acids 1027 to 1711) for these strains were manipulated as described by P. Gallinari et al. (see Gallinari P, Paolini C, Brennan D, Nardi C, Steinkuhler C, De Francesco R. Biochemistry. 38(17):5620-32, (1999)). Briefly, a three-lysine solubilizing tail was added at the 3′-end of the NS4A coding region. The cysteine in the P1 position of the NS4A-NS4B cleavage site (amino acid 1711) was changed to a glycine to avoid the proteolytic cleavage of the lysine tag. Furthermore, a cysteine to serine mutation was introduced by PCR at amino acid position 1454 to prevent the autolytic cleavage in the NS3 helicase domain. The variant DNA fragment was cloned in the pET21b bacterial expression vector (Novagen) and the NS3/4A complex was expressed in Escherichia coli strain BL21 (DE3) (Invitrogen) following the protocol described by P. Gallinari et al. (see Gallinari P, Brennan D, Nardi C, Brunetti M, Tomei L, Steinkuhler C, De Francesco R., J Virol. 72(8):6758-69 (1998)) with modifications. Briefly, the NS3/4A protease complex expression was induced with 0.5 mM Isopropyl β-D-1-thiogalactopyranoside (IPTG) for 22 hours (h) at 20° C. A typical fermentation (1 Liter (L)) yielded approximately 10 grams (g) of wet cell paste. The cells were resuspended in lysis buffer (10 mL/g) consisting of 25 mM N-(2-Hydroxyethyl)Piperazine-N′-(2-Ethane Sulfonic acid) (HEPES), pH 7.5, 20% glycerol, 500 mM Sodium Chloride (NaCl), 0.5% Triton X-100, 1 microgram/milliliter (“μg/mL”) lysozyme, 5 mM Magnesium Chloride (MgCl2), 1 μg/ml Dnasel, 5 mM β-Mercaptoethanol (βME), Protease inhibitor-Ethylenediamine Tetraacetic acid (EDTA) free (Roche), homogenized and incubated for 20 minutes (min) at 4° C. The homogenate was sonicated and clarified by ultra-centrifugation at 235000 g for 1 h at 4° C. Imidazole was added to the supernatant to a final concentration of 15 mM and the pH adjusted to 8.0. The crude protein extract was loaded on a Nickel-Nitrilotriacetic acid (Ni-NTA) column pre-equilibrated with buffer B (25 mM HEPES, pH 8.0, 20% glycerol, 500 mM NaCl, 0.5% Triton X-100, 15 mM imidazole, 5 mM βME). The sample was loaded at a flow rate of 1 mL/min. The column was washed with 15 column volumes of buffer C (same as buffer B except with 0.2% Triton X-100). The protein was eluted with 5 column volumes of buffer D (same as buffer C except with 200 mM Imidazole). […]
# [2] = system: HCV replicon in HUH-7 cells; assay: HCV replicon FRET assay; format: cell-based, Hepatitis C virus (strain 1b); details: Hepatitis C virus, Huh-7; HCV replicon, for compounds tested; read-out: EC50 Range
# Text: An HCV replicon whole cell system was established as described by Lohmann V, Komer F, Koch J, Herian U, Theilmann L, Bartenschlager R., Science 285(5424):110-3 (1999). This system enabled us to evaluate the effects of our HCV Protease compounds on HCV RNA replication. Briefly, using the HCV strain 1b sequence described in the Lohmann paper (Assession number: AJ238799), an HCV cDNA was synthesized by Operon Technologies, Inc. (Alameda, Calif.), and the full-length replicon was then assembled in plasmid pGem9zf(+) (Promega, Madison, Wis.) using standard molecular biology techniques. The replicon consists of (i) the HCV 5′ UTR fused to the first 12 amino acids of the capsid protein, (ii) the neomycin phosphotransferase gene (neo), (iii) the IRES from encephalomyocarditis virus (EMCV), and (iv) HCV NS3 to NS5B genes and the HCV 3′ UTR. Plasmid DNAs were linearized with Scal and RNA transcripts were synthesized in vitro using the T7 MegaScript transcription kit (Ambion, Austin, Tex.) according to manufacturer's directions. In vitro transcripts of the cDNA were transfected into the human hepatoma cell line, HUH-7. […] Resulting cell lines were characterized for positive and negative strand RNA production and protein production over time.
# The HCV replicon FRET assay was developed to monitor the inhibitory effects of compounds described in the disclosure on HCV viral replication. HUH-7 cells, constitutively expressing the HCV replicon, were grown in Dulbecco's Modified Eagle Media (DMEM) (Gibco-BRL) containing 10% Fetal calf serum (FCS) (Sigma) and 1 mg/ml G418 (Gibco-BRL). Cells were seeded the night before (1.5×10^4 cells/well) in 96-well tissue-culture sterile plates. Compound and no compound controls were prepared in DMEM containing 4% FCS, 1:100 Penicillin/Streptomysin (Gibco-BRL), 1:100 L-glutamine and 5% DMSO in the dilution plate (0.5% DMSO final concentration in the assay). Compound/DMSO mixes were added to the cells and incubated for 4 days at 37° C. After 4 days, cells were first assessed for cytotoxicity using alamar Blue (Trek Diagnotstic Systems) for a CC50 reading. The toxicity of compound (CC50) was determined by adding 1/10th volume of alamar Blue to the media incubating the cells. After 4 hours, the fluorescence signal from each well was read, with an excitation wavelength at 530 nm and an emission wavelength of 580 nm, using the Cytofluor Series 4000 (Perspective Biosystems). Plates were then rinsed thoroughly with Phosphate-Buffered Saline (PBS) (3 times 150 μl). The cells were lysed with 25 μl of a lysis assay reagent containing an HCV protease substrate (5× cell Luciferase cell culture lysis reagent (Promega #E153A) diluted to 1× with distilled water, NaCl added to 150 mM final, the FRET peptide substrate (as described for the enzyme assay above) diluted to 10 μM final from a 2 mM stock in 100% DMSO. […]. The plate was then placed into the Cytofluor 4000 instrument which had been set to 340 nm excitation/490 nm emission, automatic mode for 21 cycles and the plate read in a kinetic mode. EC50 determinations were carried out as described for the IC50 determinations.
# T1 sequence (P27958 1027-1657, change not shown, one chain of several): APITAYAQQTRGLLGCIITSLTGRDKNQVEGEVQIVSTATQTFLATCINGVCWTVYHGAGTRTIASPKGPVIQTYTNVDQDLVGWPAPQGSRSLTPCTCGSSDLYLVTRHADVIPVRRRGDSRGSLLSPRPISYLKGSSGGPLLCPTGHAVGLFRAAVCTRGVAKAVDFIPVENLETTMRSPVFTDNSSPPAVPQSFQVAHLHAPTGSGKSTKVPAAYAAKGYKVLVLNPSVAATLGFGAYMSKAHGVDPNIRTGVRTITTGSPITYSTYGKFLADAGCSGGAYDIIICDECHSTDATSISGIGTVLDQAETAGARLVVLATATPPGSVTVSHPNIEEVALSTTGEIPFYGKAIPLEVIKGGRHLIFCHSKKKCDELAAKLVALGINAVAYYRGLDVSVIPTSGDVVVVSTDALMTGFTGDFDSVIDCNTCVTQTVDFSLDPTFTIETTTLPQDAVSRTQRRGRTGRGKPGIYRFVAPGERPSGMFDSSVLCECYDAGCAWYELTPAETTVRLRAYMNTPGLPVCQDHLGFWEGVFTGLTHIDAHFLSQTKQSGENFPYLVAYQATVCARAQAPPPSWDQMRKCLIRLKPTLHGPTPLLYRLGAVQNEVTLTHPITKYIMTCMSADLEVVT
Structure (SMILES),IC50 [1],melting point,EC50 [2]
"Cc1cc(C(=O)O[C@@H]2C[C@H]3C(=O)N[C@]4(C(=O)NS(=O)(=O)C5CC5)C[C@H]4/C=C\CCCCC[C@H](NC(=O)OC(C)(C)C)C(=O)N3C2)no1 [Compound 34, 18-(5-methylisoxazole-3-carbonyloxy)-14-tert-butoxycarbonylamino-4-cyclopropylsulfonylaminocarbonyl-2,15-dioxo-3,16-diazatricyclo-[14.3.0.0^4,6]-nonadec-7-ene]",< 100 nM,157 to 159 °C,> 1000 nM
"CC(C)(C)OC(=O)N[C@H]1COCCC/C=C\[C@@H]2C[C@@]2(C(=O)NS(=O)(=O)C2CC2)NC(=O)[C@@H]2C[C@@H](OC(=O)Nc3ccc(Oc4ccccc4)cc3)CN2C1=O [Compound 41, 18-(4-phenoxyphenylaminocabonyloxy)-14-tert-butoxycarbonylamino-4-cyclopropylsulfonylaminocarbonyl-2,15-dioxo-3,16-diaza-12-oxatricyclo-[14.3.0.0^4,6]-nonadec-7-ene]",> 1000 nM,163 to 165 °C,> 1000 nM
"COc1ccc(C(=O)O[C@@H]2C[C@H]3C(=O)N[C@]4(C(=O)NS(=O)(=O)C5CC5)C[C@H]4/C=C\COCCC[C@H](NC(=O)OC(C)(C)C)C(=O)N3C2)c(OC)c1 [Compound 8, 18-(2,4-dimethoxybenzoyloxy)-14-tert-butoxycarbonylamino-4-cyclopropylsulfonylaminocarbonyl-2,15-dioxo-3,16-diaza-10-oxatricyclo-[14.3.0.0^4,6]-nonadec-7-ene]",< 100 nM,122 to 124 °C,100 to 1000 nM
"CC(C)(C)OC(=O)N[C@H]1CCCCC/C=C\[C@@H]2C[C@@]2(C(=O)NS(=O)(=O)C2CC2)NC(=O)[C@@H]2C[C@@H](OC(=O)c3ccccc3)CN2C1=O [Compound 15, 18-benzoyloxy-14-tert-butoxycarbonylamino-4-cyclopropylsulfonylaminocarbonyl-2,15-dioxo-3,16-diazatricyclo-[14.3.0.0^4,6]-nonadec-7-ene]",< 100 nM,140 to 142 °C,< 100 nM
"COc1ccc(C(=O)O[C@@H]2C[C@H]3C(=O)N[C@]4(C(=O)NS(=O)(=O)C5CC5)C[C@H]4/C=C\CCCCC[C@H](NC(=O)OC(C)(C)C)C(=O)N3C2)cc1 [Compound 20, 18-(4-methoxybenzoyloxy)-14-tert-butoxycarbonylamino-4-cyclopropylsulfonylaminocarbonyl-2,15-dioxo-3,16-diazatricyclo-[14.3.0.0^4,6]-nonadec-7-ene]",< 100 nM,151 to 153 °C,< 100 nM
"CC(C)(C)OC(=O)N[C@H]1COCCC/C=C\[C@@H]2C[C@@]2(C(=O)NS(=O)(=O)C2CC2)NC(=O)[C@@H]2C[C@@H](OC(=O)Nc3ccccc3-c3ccccc3)CN2C1=O [Compound 42, 18-(2-biphenylaminocarbonyloxy)-14-tert-butoxycarbonylamino-4-cyclopropylsulfonylaminocarbonyl-2,15-dioxo-3,16-diaza-12-oxatricyclo-[14.3.0.0^4,6]-nonadec-7-ene]",< 100 nM,147 to 149 °C,100 to 1000 nM
"CC(C)(C)OC(=O)N[C@H]1CCCOC/C=C\[C@@H]2C[C@@]2(C(=O)NS(=O)(=O)C2CC2)NC(=O)[C@@H]2C[C@@H](OC(=O)NCC3CCCCC3)CN2C1=O [Compound 37, 18-cyclohexylmethylaminocarbonyloxyl-14-tert-butoxycarbonylamino-4-cyclopropylsulfonylaminocarbonyl-2,15-dioxo-3,16-diaza-10-oxatricyclo-[14.3.0.0^4,6]-nonadec-7-ene]",100 to 1000 nM,142 to 144 °C,> 1000 nM
"CC(C)(C)OC(=O)N[C@H]1CCCCC/C=C\[C@@H]2C[C@@]2(C(=O)NS(=O)(=O)C2CC2)NC(=O)[C@@H]2C[C@@H](OC(=O)c3cccc(C#N)c3)CN2C1=O [Compound 33, 18-(3-cyanobenzoyloxy)-14-tert-butoxycarbonylamino-4-cyclopropylsulfonylaminocarbonyl-2,15-dioxo-3,16-diazatricyclo-[14.3.0.0^4,6]-nonadec-7-ene]",< 100 nM,151 to 153 °C,100 to 1000 nM
"CC(C)(C)OC(=O)N[C@H]1CCCOC/C=C\[C@@H]2C[C@@]2(C(=O)NS(=O)(=O)C2CC2)NC(=O)[C@@H]2C[C@@H](OC(=O)c3ccccc3)CN2C1=O [Compound 1, 18-benzoyloxy-14-tert-butoxycarbonylamino-4-cyclopropylsulfonylaminocarbonyl-2,15-dioxo-3,16-diaza-10-oxatricyclo[14.3.0.0^4,6]nonadec-7-ene]",< 100 nM,153 to 155 °C,100 to 1000 nM

# Reference: US7772183B2 (Bristol-Myers Squibb Company, priority 2005, dated 2010)
